Experimental data published in patent US20240247301A1, “DIAGNOSTIC ASSAY FOR CLASSIC INBORN GALACTOSEMIA” (Ohio State Innovation Foundation, priority 2022, published 2024).
Several values for one entry are separate records, joined by “and”; a condition that tells them apart may be missing. Equal entries are not always repeated. Where two headings read alike, the source gives them in different places.

Assays:
[1] = target: T1, Duarte GalT (galactose-1-phosphate uridylyltransferase, Duarte variant) (Homo sapiens, UniProt P07902, N314D); test: Duarte GalT-PGM-G6PDH coupled assay (traditional); format: biochemical
T1 construct: coupled to YidA or PGM-G6PDH (helper enzymes)
T1 sequence (P07902 whole entry N314D): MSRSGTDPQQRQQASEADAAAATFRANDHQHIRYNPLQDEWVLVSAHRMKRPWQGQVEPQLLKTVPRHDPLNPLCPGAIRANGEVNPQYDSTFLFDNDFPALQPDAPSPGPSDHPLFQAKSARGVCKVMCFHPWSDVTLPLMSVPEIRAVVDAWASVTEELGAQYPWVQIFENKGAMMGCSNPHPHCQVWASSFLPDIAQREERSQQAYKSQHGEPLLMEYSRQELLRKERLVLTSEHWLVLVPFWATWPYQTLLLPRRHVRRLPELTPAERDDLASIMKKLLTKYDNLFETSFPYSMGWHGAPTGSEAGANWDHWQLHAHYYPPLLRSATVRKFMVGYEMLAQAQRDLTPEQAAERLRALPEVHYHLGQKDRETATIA
Description: It was sought to compare the Duarte GalT activity determined using the YidA assay versus the existing method. To this end, measurements were conducted using the traditional PGM-G6PDH coupled assay (McCorvie et al. 2013). By titrating the coupled enzymes, the threshold that permits the most sensitive detection was first determined.
(§1) Transformation and overexpression of GalT were performed as described elsewhere (Lai et al. 2021). For purification, a single bacterial colony expressing GalT was used to inoculate 2.5 mL of Dynamite growth medium (Taylor et al. 2017) supplemented with […] kanamycin and grown overnight at 37° ° C. with shaking. This saturated overnight culture was used to seed 250 mL of fresh dynamite medium containing the antibiotic. […]
(§2) Recombinant GalT was purified using the same protocol as that described above for YidA. The concentration of the His6-tagged GalT was determined using a molar extinction coefficient (85,620 M^−1 cm^−1) at 280 nm, and the final preparation was stored at −80° C. in small aliquots, which were subsequently thawed immediately before use in biochemical assays.
An NADH standard curve (data not shown) was generated using relative fluorescence units (RFUs) versus different concentrations of NADH and used as a reference for calculating the NADH produced from the Duarte GalT-PGM-G6PDH coupled assay. […]

[2] = target: T1, Duarte GalT (galactose-1-phosphate uridylyltransferase, Duarte variant); test: Duarte GalT-YidA coupled assay (SUMO tag removed from YidA); format: biochemical
Description: Next, it was sought to obtain recombinant GalT for proof-of-concept assays. The ready availability of the Duarte GalT clone from Addgene (GALTA-c001) led to use of this enzyme in the current studies.
as §1, §2
These 2-μL aliquots were added to a 384-well plate which were pre-dispensed to test wells 18 μL of water and 5 μL of malachite green reagent. […] To determine the Km and kcat values, the initial velocity calculated at each substrate concentration was subject to the Michaelis-Menten curve-fitting option in Kaleidagraph (Synergy Software).

[3] = tested on: wild-type GalT (galactose-1-phosphate uridylyltransferase); settings: cited from earlier work; for Km: read-out: Km (for Gal-1-P)
[4] = target: Salmonella typhimurium YihX, recombinant wild type, SEQ ID NO: 2 (Salmonella enterica, UniProt Q7CPC8); test: Kinetic studies of YihX with Glc 1-P and Gal 1-P; format: biochemical; settings: YihX refolded after denaturing purification
Salmonella typhimurium YihX, recombinant wild type, SEQ ID NO: 2, sequence (Q7CPC8 entry or part of it): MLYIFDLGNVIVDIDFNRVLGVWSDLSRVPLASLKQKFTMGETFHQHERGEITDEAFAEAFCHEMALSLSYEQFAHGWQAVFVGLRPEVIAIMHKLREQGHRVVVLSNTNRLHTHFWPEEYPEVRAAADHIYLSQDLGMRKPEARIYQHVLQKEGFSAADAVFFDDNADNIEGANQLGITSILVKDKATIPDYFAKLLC
Description: Salmonella YihX was purified after overexpression in E. coli BL21 (DE3) pLysS cells. His6-YihX was purified under denaturing conditions using immobilized metal-affinity chromatography. Following purification, YihX was refolded by stepdown dialysis to remove the denaturant.

E. coli YidA = settings: Kuznetsova et al. 2006; cited from earlier work
[5] = target: Salmonella typhimurium YidA, recombinant wild type, SEQ ID NO: 1 (Salmonella enterica, UniProt Q8ZKY8); test: YidA phosphatase activity (malachite green), dephosphorylation of Glc-1-P; format: biochemical
Salmonella typhimurium YidA, recombinant wild type, SEQ ID NO: 1, sequence (Q8ZKY8 entry or part of it): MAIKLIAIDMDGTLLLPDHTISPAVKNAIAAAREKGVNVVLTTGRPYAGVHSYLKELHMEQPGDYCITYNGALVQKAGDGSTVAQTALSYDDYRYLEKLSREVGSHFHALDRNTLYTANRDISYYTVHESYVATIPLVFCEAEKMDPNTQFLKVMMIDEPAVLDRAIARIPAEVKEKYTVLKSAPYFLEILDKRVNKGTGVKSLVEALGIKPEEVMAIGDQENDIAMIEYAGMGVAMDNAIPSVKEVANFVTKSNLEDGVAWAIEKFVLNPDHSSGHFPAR
Excerpt: The sugar phosphate phosphatase produced from an engineered cell can be identical to a naturally occurring one, such as YidA or YihX, but placed within a cell in which it is not naturally produced. Examples of this approach are given throughout. The sequence for YidA from Salmonella typhimurium can be found, for example, in NC_492731.1. This sequence corresponds to SEQ ID NO: 1. The gene ID is 1255358. The sequence for YihX from Salmonella typhimurium can be found, for example, in NC_462906.1. This corresponds to SEQ ID NO: 2. The gene ID is 1255552. In one example, genes encoding these proteins can be placed within a cell in which it is not naturally occurring.
Nearly homogeneous recombinant Salmonella YidA by overexpressing it in E. coli SixPack cells were obtained (Lipinszki et al. 2018) (FIG. 3A). N-terminal fusions with a small ubiquitin-like modifier (SUMO) domain were engineered to enhance solubility (Marblestone et al. 2006) and a His6 tag to facilitate affinity purification (FIG. 3A). […] Since YidA is a Mg^2+-dependent phosphatase, its activity with Glc-1-P in the presence of 0-5 mM MgCl2 was first tested and determined that 3 mM MgCl2 was optimal (FIG. 5). […]

[6] = mean ± SD of three independent trials
[7] = McCorvie et al., 2013 (text: 2014)

Row | SMILES | kcat [1, 6] | kcat ([1]; single trials, ± curve-fit error, pH 8, 37° C., 0.8 mM UDP-glucose) | kcat [2, 6] | kcat ([2]; single trials, ± curve-fit error, pH 8.0, 37° C., 1 mM UDP-glucose) | kcat ([3]; Crews et al., 2000) | kcat [3, 7] | kcat ([3]; Tang et al., 2012, table value calculated from reported Vmax with 44 kDa) | Km ([3]; Crews et al., 2000) | Km [3, 7] | Km ([3]; Tang et al., 2012) | specificity for Glc 1-P over Gal 1-P [4] | Km (E. coli YidA) | kcat (E. coli YidA) | kcat ([5]; mean ± SE of two independent trials) | kcat ([5]; single trials, ± curve-fit error, pH 8, 37° C., 3 mM MgCl2)
1 | O=P(O)(O)O[C@H]1O[C@H](CO)[C@H](O)[C@H](O)[C@H]1O [Gal-1-P, galactose-1-phosphate] | 4.32 ± 0.12 s⁻¹ | 4.45 ± 0.2 s⁻¹ and 4.3 ± 0.067 s⁻¹ and 4.22 ± 0.2 s⁻¹ | 14.2 ± 1.33 s⁻¹ and 14.1 ± 0.75 s⁻¹ | 14.2 ± 1.33 s⁻¹ and 13.3 ± 1.05 s⁻¹ and 14.7 ± 1.17 s⁻¹ | 5,880 min^−1 | 816 min⁻¹ | 2,400 min^−1 and 2,122* min^−1 | 400 µM | 290 µM | 1250 µM |  |  |  |  | 
2 | O=P(O)(O)O[C@H]1O[C@H](CO)[C@@H](O)[C@H](O)[C@H]1O [Glc-1-P, α-D-glucose-1-phosphate] |  |  |  |  |  |  |  |  |  |  | 36 fold | 210 µM | 20 s⁻¹ | 14.2 ± 0.35 s⁻¹ | 13.9 ± 1.07 s⁻¹ and 14.6 ± 1.05 s⁻¹
